Source: ChEMBL document CHEMBL1146250, “Synthesis and antimicrobial activity of 7-fluoro-3-aminosteroids” (2007)
In brackets after ≈: the same amount, converted by molar mass.

Assays:
Escherichia coli = assay: Antimicrobial activity against Escherichia coli DC2; type: functional
Streptococcus pyogenes [1] = assay: Antimicrobial activity against Streptococcus pyogenes 308A; type: functional
Pseudomonas aeruginosa [2] = assay: Antimicrobial activity against Pseudomonas aeruginosa 1771M; type: functional
Staphylococcus aureus = assay: Antimicrobial activity against Staphylococcus aureus 503; type: functional
Enterobacter cloacae = assay: Antimicrobial activity against Enterobacter cloacae 1321E; type: functional
Pseudomonas aeruginosa [3] = assay: Antimicrobial activity against Pseudomonas aeruginosa 9027; type: functional
Streptococcus pyogenes [4] = assay: Antimicrobial activity against Streptococcus pyogenes 77A; type: functional
Salmonella typhimurium = assay: Antimicrobial activity against Salmonella Typhimurium; type: functional, Salmonella enterica subsp. enterica serovar Typhimurium; conditions: Salmonella enterica

| MIC (Escherichia coli) [µg/mL] | MIC (Streptococcus pyogenes [1]) [µg/mL] | MIC (Pseudomonas aeruginosa [2]) [µg/mL] | MIC (Staphylococcus aureus) [µg/mL] | MIC (Enterobacter cloacae) [µg/mL] | MIC (Pseudomonas aeruginosa [3]) [µg/mL] | MIC (Streptococcus pyogenes [4]) [µg/mL] | MIC (Salmonella typhimurium) [µg/mL] | Structure (SMILES) |
| --- | --- | --- | --- | --- | --- | --- | --- | --- |
| 12.5 (≈ 26.1 µM) | 12.5 (≈ 26.1 µM) | 6.3 (≈ 13.1 µM) | 6.3 (≈ 13.1 µM) | 100 (≈ 208 µM) | 12.5 (≈ 26.1 µM) | 12.5 (≈ 26.1 µM) | 100 (≈ 208 µM) | CC(CO)[C@H]1CC[C@H]2[C@@H]3[C@@H](F)C[C@H]4C[C@@H](NCCCNCCCCN)CC[C@]4(C)[C@H]3CC[C@]12C (single isomer, unassigned) |
| 12.5 (≈ 26.1 µM) | 12.5 (≈ 26.1 µM) | 25 (≈ 52.1 µM) | 6.3 (≈ 13.1 µM) | 100 (≈ 208 µM) | 12.5 (≈ 26.1 µM) | 6.3 (≈ 13.1 µM) | 50 (≈ 104 µM) | CC(CO)[C@H]1CC[C@H]2[C@@H]3[C@@H](F)C[C@H]4C[C@H](NCCCNCCCCN)CC[C@]4(C)[C@H]3CC[C@]12C (single isomer, unassigned) |
| 50 (≈ 89.6 µM) |  | 50 (≈ 89.6 µM) | 50 (≈ 89.6 µM) | 50 (≈ 89.6 µM) | 50 (≈ 89.6 µM) | 50 (≈ 89.6 µM) | 50 (≈ 89.6 µM) | C[C@@H](COS(=O)(=O)O)[C@H]1CC[C@H]2[C@@H]3[C@H](O)C[C@H]4C[C@@H](NCCCNCCCCN)CC[C@]4(C)[C@H]3CC[C@]12C |
| 25 (≈ 44.7 µM) | 50 (≈ 89.3 µM) | 50 (≈ 89.3 µM) | 50 (≈ 89.3 µM) | 50 (≈ 89.3 µM) | 50 (≈ 89.3 µM) | 50 (≈ 89.3 µM) | 50 (≈ 89.3 µM) | CC(COS(=O)(=O)O)[C@H]1CC[C@H]2[C@@H]3[C@@H](F)C[C@H]4C[C@@H](NCCCNCCCCN)CC[C@]4(C)[C@H]3CC[C@]12C (single isomer, unassigned) |
| 25 (≈ 52.3 µM) | 25 (≈ 52.3 µM) | 25 (≈ 52.3 µM) | 12.5 (≈ 26.2 µM) | 50 (≈ 105 µM) | 12.5 (≈ 26.2 µM) | 25 (≈ 52.3 µM) | 50 (≈ 105 µM) | C[C@@H](CO)[C@H]1CC[C@H]2[C@@H]3[C@H](O)C[C@H]4C[C@@H](NCCCNCCCCN)CC[C@]4(C)[C@H]3CC[C@]12C |
| 6.3 (≈ 13.1 µM) | 6.3 (≈ 13.1 µM) | 3.1 (≈ 6.46 µM) | 6.3 (≈ 13.1 µM) | 100 (≈ 208 µM) | 6.3 (≈ 13.1 µM) | 6.3 (≈ 13.1 µM) | 100 (≈ 208 µM) | CC(CO)[C@H]1CC[C@H]2[C@@H]3[C@H](F)C[C@H]4C[C@@H](NCCCNCCCCN)CC[C@]4(C)[C@H]3CC[C@]12C (single isomer, unassigned) |
| 50 (≈ 89.3 µM) | 50 (≈ 89.3 µM) | 25 (≈ 44.7 µM) | 25 (≈ 44.7 µM) | 100 (≈ 179 µM) | 12.5 (≈ 22.3 µM) | 50 (≈ 89.3 µM) | 100 (≈ 179 µM) | CC(COS(=O)(=O)O)[C@H]1CC[C@H]2[C@@H]3[C@H](F)C[C@H]4C[C@@H](NCCCNCCCCN)CC[C@]4(C)[C@H]3CC[C@]12C (single isomer, unassigned) |
| 25 (≈ 44.7 µM) | 25 (≈ 44.7 µM) | 50 (≈ 89.3 µM) | 6.3 (≈ 11.3 µM) | 50 (≈ 89.3 µM) | 50 (≈ 89.3 µM) | 12.5 (≈ 22.3 µM) | 50 (≈ 89.3 µM) | CC(COS(=O)(=O)O)[C@H]1CC[C@H]2[C@@H]3[C@@H](F)C[C@H]4C[C@H](NCCCNCCCCN)CC[C@]4(C)[C@H]3CC[C@]12C (single isomer, unassigned) |
| 25 (≈ 44.7 µM) | 12.5 (≈ 22.3 µM) | 50 (≈ 89.3 µM) | 12.5 (≈ 22.3 µM) | 100 (≈ 179 µM) | 25 (≈ 44.7 µM) | 12.5 (≈ 22.3 µM) | 100 (≈ 179 µM) | CC(COS(=O)(=O)O)[C@H]1CC[C@H]2[C@@H]3[C@H](F)C[C@H]4C[C@H](NCCCNCCCCN)CC[C@]4(C)[C@H]3CC[C@]12C (single isomer, unassigned) |
| 12.5 (≈ 27.1 µM) | 100 (≈ 217 µM) | 6.3 (≈ 13.6 µM) | 6.3 (≈ 13.6 µM) | 100 (≈ 217 µM) | 12.5 (≈ 27.1 µM) | 100 (≈ 217 µM) | 50 (≈ 108 µM) | CC(CO)[C@H]1CC[C@H]2[C@@H]3CC[C@H]4C[C@@H](NCCCNCCCCN)CC[C@]4(C)[C@H]3CC[C@]12C (single isomer, unassigned) |
| 50 (≈ 104 µM) | 25 (≈ 52.1 µM) | 100 (≈ 208 µM) | 12.5 (≈ 26.1 µM) | 100 (≈ 208 µM) | 50 (≈ 104 µM) | 12.5 (≈ 26.1 µM) | 100 (≈ 208 µM) | CC(CO)[C@H]1CC[C@H]2[C@@H]3[C@H](F)C[C@H]4C[C@H](NCCCNCCCCN)CC[C@]4(C)[C@H]3CC[C@]12C (single isomer, unassigned) |
